One assay concerns NCI-H358. Kind of assay: Antiproliferative activity against human NCI-H358 cells incubated for 96 hrs by Celltiter-Glo assay. The format is functional, cell-based.
In the next assay the target is GTPase KRas (Homo sapiens, UniProt P01116, G12V). Kind of assay: Inhibition of His6-tagged KRas G12V mutant (unknown origin) expressed in Escherichia coli BL21(DE3) cells assessed as reduction in Ras/GST-fused Raf RBD interaction incubated for 1 hr by HTRF assay. For orientation: Time-resolved FRET reads energy transfer from a long-lived donor to a nearby acceptor.
GTPase KRas, sequence (P01116 whole entry G12V, the tested form may be a part): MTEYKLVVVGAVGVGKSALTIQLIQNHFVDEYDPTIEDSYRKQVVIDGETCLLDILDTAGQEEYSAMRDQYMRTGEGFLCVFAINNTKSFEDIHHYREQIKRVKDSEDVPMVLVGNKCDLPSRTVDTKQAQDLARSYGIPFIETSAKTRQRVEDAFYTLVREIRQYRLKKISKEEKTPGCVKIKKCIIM

The mark [1] stands for this setting: Homo sapiens, NCI-H358, 96 h, read-out: EC50.

As for `C[C@@H]1NC(=O)[C@@H](Cc2ccccc2)NC(=O)[C@@H]2CCCCNC(=O)c3cc(cc(c3)C(=O)N[C@H](Cc3ccc4ccccc4c3)C(=O)N[C@@H](CO)C(=O)N[C@@H](CC(N)=O)C(=O)N[C@H](Cc3ccc4ccccc4c3)C(=O)N[C@@H](c3ccccc3)C(=O)N2)C(=O)NC[C@@H](C(=O)N[C@@H](CCN)CC(=O)N[C@H](CCCNC(=N)N)C(N)=O)NC(=O)[C@H](CCCNC(=N)N)NC(=O)[C@@H](CCCNC(=N)N)NC1=O`, in the assay on NCI-H358 (setting [1]), the EC50 was 16 µM. Take `C[C@@H]1NC(=O)[C@H](CO)NC(=O)[C@@H](Cc2ccc3ccccc3c2)NC(=O)c2cc3cc(c2)C(=O)NC[C@@H](C(=O)N[C@@H](CCCN)C(=O)N[C@H](CCCNC(=N)N)C(=O)N[C@@H](Cc2ccccc2)C(=O)N[C@H](C)C(N)=O)NC(=O)[C@H](CCCNC(=N)N)NC(=O)[C@@H](CCCNC(=N)N)NC(=O)[C@@H](CCC(N)=O)NC(=O)[C@@H](Cc2ccccc2)NC(=O)[C@H](CCCCNC3=O)NC(=O)[C@H](c2ccccc2)NC(=O)[C@@H](Cc2ccc3ccccc3c2)NC1=O`: in the assay with NCI-H358 (setting [1]), the EC50 was determined as 4.9 µM. For the compound `C[C@@H]1NC(=O)[C@@H](Cc2ccccc2)NC(=O)[C@@H]2CCCCNC(=O)c3cc(cc(c3)C(=O)N[C@H](Cc3ccc4ccccc4c3)C(=O)N[C@@H](CO)C(=O)N[C@@H](CC(N)=O)C(=O)N[C@H](Cc3ccc4ccccc4c3)C(=O)N[C@@H](c3ccccc3)C(=O)N2)C(=O)NC[C@@H](C(=O)N[C@@H](CC(N)=O)C(=O)N[C@H](CCCNC(=N)N)C(=O)N[C@@H](Cc2cccc(Cl)c2)C(=O)N[C@H](C)C(N)=O)NC(=O)[C@H](CCCNC(=N)N)NC(=O)[C@@H](CCCNC(=N)N)NC1=O`, the EC50 with NCI-H358 (setting [1]) came out at 9 µM.

Consider `C[C@@H](NC(=O)[C@H](Cc1ccccc1)NC(=O)[C@@H](CCCNC(=N)N)NC(=O)[C@H](CCCN)NC(=O)[C@@H]1CNC(=O)c2cc3cc(c2)C(=O)N[C@H](Cc2ccc4ccccc4c2)C(=O)N[C@@H](CCO)C(=O)N[C@@H](CC(N)=O)C(=O)N[C@H](Cc2ccc4ccccc4c2)C(=O)N[C@@H](c2ccccc2)C(=O)N[C@@H](CCCCNC3=O)C(=O)N[C@H](Cc2ccccc2)C(=O)N[C@H](CCC(N)=O)C(=O)N[C@H](CCCNC(=N)N)C(=O)N[C@@H](CCCNC(=N)N)C(=O)N1)C(N)=O`, for which the EC50 result in the assay on NCI-H358 (nci-h358) is “Not Active”.

Regarding `CC(C)[C@@H](NC(=O)[C@H](CO)NC(=O)[C@H](CC(=O)O)NC(=O)[C@@H](Cc1ccc(O)cc1)NC(=O)[C@@H]1CNC(=O)c2cc3cc(c2)C(=O)N[C@H](Cc2ccc4ccccc4c2)C(=O)N[C@@H](CO)C(=O)N[C@@H](CCC(N)=O)C(=O)N[C@H](Cc2ccc4ccccc4c2)C(=O)N[C@@H](c2ccccc2)C(=O)N[C@@H](CCCCNC3=O)C(=O)N[C@H](Cc2ccccc2)C(=O)N[C@@H](C)C(=O)N[C@H](CCCNC(=N)N)C(=O)N[C@@H](CCCNC(=N)N)C(=O)N1)C(=O)N[C@@H](CCCCN)C(N)=O`, at GTPase KRas, the IC50 entry is recorded as “Not Active”.

Consider `C[C@H](NC(=O)C[C@H](Cc1ccccc1)NC(=O)[C@@H](CCCNC(=N)N)NC(=O)[C@H](CCCN)NC(=O)[C@@H]1CNC(=O)c2cc3cc(c2)C(=O)N[C@H](Cc2ccc4ccccc4c2)C(=O)N[C@@H](CO)C(=O)N[C@@H](CC(N)=O)C(=O)N[C@H](Cc2ccc4ccccc4c2)C(=O)N[C@@H](c2ccccc2)C(=O)N[C@@H](CCCCNC3=O)C(=O)N[C@H](Cc2ccccc2)C(=O)N[C@H](CCC(N)=O)C(=O)N[C@H](CCCNC(=N)N)C(=O)N[C@@H](CCCNC(=N)N)C(=O)N1)C(N)=O`, for which the EC50 with NCI-H358 (setting [1]) was found to be 7.4 µM. As to `C[C@@H](NC(=O)[C@H](Cc1ccccc1)NC(=O)[C@@H](CCCNC(=N)N)NC(=O)[C@H](CCCN)NC(=O)[C@@H]1CNC(=O)c2cc3cc(c2)C(=O)N[C@H](Cc2csc4ccccc24)C(=O)N[C@@H](CO)C(=O)N[C@@H](CC(N)=O)C(=O)N[C@H](Cc2ccc4ccccc4c2)C(=O)N[C@@H](c2ccccc2)C(=O)N[C@@H](CCCCNC3=O)C(=O)N[C@H](Cc2ccccc2)C(=O)N[C@H](CCC(N)=O)C(=O)N[C@H](CCCNC(=N)N)C(=O)N[C@@H](CCCNC(=N)N)C(=O)N1)C(N)=O`, the concentration for a half-maximal effect (EC50) in the assay on NCI-H358 (setting [1]) is 17 µM.

On to `C[C@@H]1NC(=O)[C@@H](Cc2ccccc2)NC(=O)[C@@H]2CCCCNC(=O)c3cc(cc(c3)C(=O)N[C@H](Cc3ccc4ccccc4c3)C(=O)N[C@@H](CO)C(=O)N[C@@H](CC(N)=O)C(=O)N[C@H](Cc3ccc4ccccc4c3)C(=O)N[C@@H](c3ccccc3)C(=O)N2)C(=O)NC[C@@H](C(=O)N[C@@H](CN)C(=O)N[C@H](CCCNC(=N)N)C(=O)N[C@@H](Cc2ccc(F)cc2)C(=O)N[C@H](C)C(N)=O)NC(=O)[C@H](CCCNC(=N)N)NC(=O)[C@@H](CCCNC(=N)N)NC1=O`, for which the EC50 result in the assay on NCI-H358 (nci-h358) is “Not Active”. Turning to `CC[C@H]1NC(=O)[C@@H](Cc2ccccc2)NC(=O)[C@@H]2CCCCNC(=O)c3cc(cc(c3)C(=O)N[C@H](Cc3ccc4ccccc4c3)C(=O)N[C@@H](CO)C(=O)N[C@@H](CC(N)=O)C(=O)N[C@H](Cc3ccc4ccccc4c3)C(=O)N[C@@H](c3ccccc3)C(=O)N2)C(=O)NC[C@@H](C(=O)N[C@@H](CCCN)C(=O)N[C@H](CCCNC(=N)N)C(=O)N[C@@H](Cc2ccccc2)C(=O)N[C@H](C)C(N)=O)NC(=O)[C@H](CCCNC(=N)N)NC(=O)[C@@H](CCCNC(=N)N)NC1=O`, the EC50 with NCI-H358 (setting [1]) was 7.2 µM. Turning to `CC(C)C[C@H]1NC(=O)[C@@H](Cc2ccccc2)NC(=O)[C@@H]2CCCCNC(=O)c3cc(cc(c3)C(=O)N[C@H](Cc3ccc4ccccc4c3)C(=O)N[C@@H](CO)C(=O)N[C@@H](CC(N)=O)C(=O)N[C@H](Cc3ccc4ccccc4c3)C(=O)N[C@@H](c3ccccc3)C(=O)N2)C(=O)NC[C@@H](C(=O)N[C@@H](CCCN)C(=O)N[C@H](CCCNC(=N)N)C(=O)N[C@@H](Cc2ccccc2)C(=O)N[C@H](C)C(N)=O)NC(=O)[C@H](CCCNC(=N)N)NC(=O)[C@@H](CCCNC(=N)N)NC1=O`, in the assay with NCI-H358 (setting [1]), the EC50 is 4.8 µM. The same measure, in the same setting: under `C[C@@H]1NC(=O)[C@@H](Cc2ccccc2)NC(=O)[C@@H]2CCCCNC(=O)c3cc(cc(c3)C(=O)N[C@H](Cc3ccc4ccccc4c3)C(=O)N[C@@H](CO)C(=O)N[C@@H](CC(N)=O)C(=O)N[C@H](Cc3ccc4ccccc4c3)C(=O)N[C@@H](c3ccccc3)C(=O)N2)C(=O)NC[C@@H](C(=O)N[C@@H](CCCN)C(=O)N[C@H](CCCNC(=N)N)C(=O)N[C@@H](CCc2ccccc2)C(=O)N[C@H](C)C(N)=O)NC(=O)[C@H](CCCNC(=N)N)NC(=O)[C@@H](CCCNC(=N)N)NC1=O` stands 9.2 µM; under `C[C@@H](O)[C@H](NC(=O)[C@H](Cc1ccccc1)NC(=O)[C@@H](CCCNC(=N)N)NC(=O)[C@H](CCCN)NC(=O)[C@@H]1CNC(=O)c2cc3cc(c2)C(=O)N[C@H](Cc2ccc4ccccc4c2)C(=O)N[C@@H](CO)C(=O)N[C@@H](CC(N)=O)C(=O)N[C@H](Cc2ccc4ccccc4c2)C(=O)N[C@@H](c2ccccc2)C(=O)N[C@@H](CCCCNC3=O)C(=O)N[C@H](Cc2ccccc2)C(=O)N[C@H](CCC(N)=O)C(=O)N[C@H](CCCNC(=N)N)C(=O)N[C@@H](CCCNC(=N)N)C(=O)N1)C(N)=O`, 2.6 µM. Regarding `C[C@@H](NC(=O)[C@H](Cc1ccccc1)NC(=O)[C@@H](CCCNC(=N)N)NC(=O)[C@H](CCCN)NC(=O)[C@@H]1CNC(=O)c2cc3cc(c2)C(=O)N[C@H](Cc2ccc4ccccc4c2)C(=O)N[C@@H](CO)C(=O)N[C@@H](CC(N)=O)C(=O)N[C@H](Cc2ccc4ccccc4c2)C(=O)N[C@@H](c2ccccc2)C(=O)N[C@@H](CCCCNC3=O)C(=O)N[C@H](Cc2ccccc2)C(=O)N[C@H](CCCN)C(=O)N[C@H](CCCNC(=N)N)C(=O)N[C@@H](CCCNC(=N)N)C(=O)N1)C(N)=O`, the concentration giving a half-maximal response (EC50) in the assay on NCI-H358 (setting [1]) amounted to 6.4 µM.

Take `C[C@@H]1NC(=O)[C@@H](Cc2ccccc2)NC(=O)[C@@H]2CCCCNC(=O)c3cc(cc(c3)C(=O)N[C@H](Cc3ccc4ccccc4c3)C(=O)N[C@@H](CO)C(=O)N[C@@H](CC(N)=O)C(=O)N[C@H](Cc3ccc4ccccc4c3)C(=O)N[C@@H](c3ccccc3)C(=O)N2)C(=O)NC[C@@H](C(=O)N[C@@H](CCCN)C(=O)N[C@H](CCCNC(=N)N)C(=O)N[C@H](C(=O)N[C@H](C)C(N)=O)c2ccccc2)NC(=O)[C@H](CCCNC(=N)N)NC(=O)[C@@H](CCCNC(=N)N)NC1=O`: the EC50 in the assay on NCI-H358 (setting [1]) worked out at 4.5 µM. For the compound `N=C(N)NCCC[C@@H]1NC(=O)[C@@H](CCCNC(=N)N)NC(=O)[C@@H](CCC(N)=O)NC(=O)[C@@H](Cc2ccccc2)NC(=O)[C@@H]2CCCCNC(=O)c3cc(cc(c3)C(=O)N[C@H](Cc3ccc4ccccc4c3)C(=O)N[C@@H](CO)C(=O)N[C@@H](CC(N)=O)C(=O)N[C@H](Cc3ccc4ccccc4c3)C(=O)N[C@@H](c3ccccc3)C(=O)N2)C(=O)NC[C@@H](C(=O)N[C@@H](CCCN)C(=O)N[C@H](CCCNC(=N)N)C(=O)N[C@@H](Cc2ccccc2)C(=O)N[C@H](CO)C(N)=O)NC1=O`, the EC50 in the assay on NCI-H358 (setting [1]) was 5.3 µM. In the case of `C[C@@H](NC(=O)[C@H](Cc1ccccc1)NC(=O)[C@@H](CCCNC(=N)N)NC(=O)[C@H](CCCN)NC(=O)[C@@H]1CNC(=O)c2cc3cc(c2)C(=O)N[C@H](Cc2ccc4ccccc4c2)C(=O)N[C@@H](CO)C(=O)N[C@@H](CC(N)=O)C(=O)N[C@H](Cc2csc4ccccc24)C(=O)N[C@@H](c2ccccc2)C(=O)N[C@@H](CCCCNC3=O)C(=O)N[C@H](Cc2ccccc2)C(=O)N[C@H](CCC(N)=O)C(=O)N[C@H](CCCNC(=N)N)C(=O)N[C@@H](CCCNC(=N)N)C(=O)N1)C(N)=O`, the EC50 in the assay on NCI-H358 (setting [1]) amounted to 5.2 µM.

Turning to `CC(C)[C@H](NC(=O)[C@H](Cc1ccccc1)NC(=O)[C@@H](CCCNC(=N)N)NC(=O)[C@H](CCCN)NC(=O)[C@@H]1CNC(=O)c2cc3cc(c2)C(=O)N[C@H](Cc2ccc4ccccc4c2)C(=O)N[C@@H](CO)C(=O)N[C@@H](CC(N)=O)C(=O)N[C@H](Cc2ccc4ccccc4c2)C(=O)N[C@@H](c2ccccc2)C(=O)N[C@@H](CCCCNC3=O)C(=O)N[C@H](Cc2ccccc2)C(=O)N[C@H](CCC(N)=O)C(=O)N[C@H](CCCNC(=N)N)C(=O)N[C@@H](CCCNC(=N)N)C(=O)N1)C(N)=O`, the EC50 in the assay with NCI-H358 (setting [1]) was 7.1 µM. As to `C[C@@H]1NC(=O)[C@@H](Cc2ccccc2)NC(=O)[C@@H]2CCCCNC(=O)c3cc(cc(c3)C(=O)N[C@H](Cc3ccc4ccccc4c3)C(=O)N[C@@H](CO)C(=O)N[C@@H](CC(N)=O)C(=O)N[C@H](Cc3ccc4ccccc4c3)C(=O)N[C@@H](c3ccccc3)C(=O)N2)C(=O)NC[C@@H](C(=O)N[C@@H](CCCN)C(=O)N[C@H](CCCNC(=N)N)C(=O)N[C@@H](Cc2c[nH]c3ccccc23)C(=O)N[C@H](C)C(N)=O)NC(=O)[C@H](CCCNC(=N)N)NC(=O)[C@@H](CCCNC(=N)N)NC1=O`, the EC50 entry in the assay with NCI-H358 (nci-h358) was “Not Active”.

By EC50 is commonly meant the concentration that produces a half-maximal response.

Values taken from ChEMBL document CHEMBL4842360, “Discovery of a Bicyclic Peptidyl Pan-Ras Inhibitor” (J Med Chem, 2021).
